# According to ChEMBL document CHEMBL3734695, “Cytotoxic potential of dispirooxindolo/acenaphthoquino andrographolide derivatives against MCF-7 cell line” (Medchemcomm, 2015):
# Active and inactive are the calls of the source. The calls are words filed in the database; no cut-off is given here.
# What was measured:
# MCF7 [1] = assay: Induction of apoptosis in human MCF7 cells assessed as polarized mitochondrial membrane at IC50 after 24 hrs by JC-1 dye based FACS analysis (reference value: 90%); assay type: functional
# MCF7 [2] = assay: Induction of apoptosis in human MCF7 cells assessed as depolarized mitochondrial membrane at IC50 after 24 hrs by JC-1 dye based FACS analysis (reference value: 10%); assay type: functional
# MCF7 [3] = assay: Cell cycle arrest in human MCF7 cells assessed as accumulation at G0/G1 phase at IC50 after 24 hrs by propidium iodide staining based flow cytometric analysis (reference value: 59.5%); assay type: functional
# MCF7 [4] = assay: Induction of ROS generation in human MCF7 cells at IC50 after 24 hrs by CM-H2DCFDA staining based flow cytometric analysis (reference value: 12.6%); assay type: functional
# MCF7 [5] = assay: Cell cycle arrest in human MCF7 cells assessed as accumulation at G2/M phase at IC50 after 48 hrs by propidium iodide staining based flow cytometric analysis (reference value: 24.2%); assay type: functional
# MCF7 [6] = assay: Induction of apoptosis in human MCF7 cells assessed as dead cells at IC50 after 24 hrs by annexin V-FITC/propidium iodide staining based flow cytometric analysis (reference value: 0.2%); assay type: functional
# MCF7 [7] = assay: Induction of apoptosis in human MCF7 cells assessed as increase in cleaved caspase-9 level at IC50 after 48 hrs by western blot analysis; assay type: functional, cell-based
# MCF7 [8] = assay: Induction of apoptosis in human MCF7 cells assessed as depolarized mitochondrial membrane at IC50 after 48 hrs by JC-1 dye based FACS analysis (reference value: 10%); assay type: functional
# MCF7 [9] = assay: Induction of apoptosis in human MCF7 cells assessed as viable cells at IC50 after 24 hrs by annexin V-FITC/propidium iodide staining based flow cytometric analysis (reference value: 99.8%); assay type: functional
# MCF7 [10] = assay: Induction of apoptosis in human MCF7 cells assessed as early apoptotic cells at IC50 after 48 hrs by annexin V-FITC/propidium iodide staining based flow cytometric analysis (reference value: 0.1%); assay type: functional
# MCF7 [11] = assay: Cell cycle arrest in human MCF7 cells assessed as accumulation at S phase at IC50 after 24 hrs by propidium iodide staining based flow cytometric analysis (reference value: 16.3%); assay type: functional
# MCF7 [12] = assay: Induction of apoptosis in human MCF7 cells assessed as increase in cleaved caspase-7 level at IC50 after 48 hrs by western blot analysis; assay type: functional, cell-based
# MCF7 [13] = assay: Induction of apoptosis in human MCF7 cells assessed as early apoptotic cells at IC50 after 24 hrs by annexin V-FITC/propidium iodide staining based flow cytometric analysis (reference value: 0.1%); assay type: functional
# MCF7 [14] = assay: Induction of apoptosis in human MCF7 cells assessed as progressive cell detachment at IC50 after 24 hrs by inverted phase contrast microscopic analysis; assay type: functional, cell-based
# MCF7 [15] = assay: Induction of apoptosis in human MCF7 cells assessed as dead cells at IC50 after 48 hrs by annexin V-FITC/propidium iodide staining based flow cytometric analysis (reference value: 0.2%); assay type: functional
# MCF7 [16] = assay: Induction of apoptosis in human MCF7 cells assessed as late apoptotic cells at IC50 after 48 hrs by annexin V-FITC/propidium iodide staining based flow cytometric analysis (reference value: 0.0%); assay type: functional
# MCF7 [17] = assay: Induction of apoptosis in human MCF7 cells assessed as rounded cells at IC50 after 24 hrs by inverted phase contrast microscopic analysis; assay type: functional, cell-based
# MCF7 [18] = assay: Induction of apoptosis in human MCF7 cells assessed as polarized mitochondrial membrane at IC50 after 48 hrs by JC-1 dye based FACS analysis (reference value: 90%); assay type: functional
# MCF7 [19] = assay: Cell cycle arrest in human MCF7 cells assessed as accumulation at G2/M phase at IC50 after 24 hrs by propidium iodide staining based flow cytometric analysis (reference value: 24.2%); assay type: functional
# MCF7 [20] = assay: Induction of apoptosis in human MCF7 cells assessed as late apoptotic cells at IC50 after 24 hrs by annexin V-FITC/propidium iodide staining based flow cytometric analysis (reference value: 0.0%); assay type: functional
# MCF7 [21] = assay: Cell cycle arrest in human MCF7 cells assessed as accumulation at G0/G1 phase at IC50 after 48 hrs by propidium iodide staining based flow cytometric analysis (reference value: 59.5%); assay type: functional
# MCF7 [22] = assay: Induction of apoptosis in human MCF7 cells assessed as viable cells at IC50 after 48 hrs by annexin V-FITC/propidium iodide staining based flow cytometric analysis (reference value: 99.8%); assay type: functional
# MCF7 [23] = assay: Cytotoxicity against human MCF7 cells assessed as growth inhibition after 72 hrs by MTT assay; assay type: functional, cell-based; details: MCF7, 72 h
# MCF7 [24] = assay: Cell cycle arrest in human MCF7 cells assessed as accumulation at S phase at IC50 after 48 hrs by propidium iodide staining based flow cytometric analysis (reference value: 16.3%); assay type: functional
# MCF7 [25] = assay: Induction of apoptosis in human MCF7 cells assessed as ratio of depolarized to polarized mitochondrial membrane at IC50 by JC-1 dye based FACS analysis; assay type: functional, cell-based; details: TDE = time-dependent effect
# MCF7 [26] = assay: Induction of apoptosis in human MCF7 cells assessed as increase in cleaved PARP-1 level at IC50 after 48 hrs by western blot analysis; assay type: functional, cell-based
SMILES,Activity (MCF7 [1]) [%],Activity (MCF7 [2]) [%],Activity (MCF7 [3]) [%],Activity (MCF7 [4]) [%],Activity (MCF7 [5]) [%],Activity (MCF7 [6]) [%],Activity (MCF7 [7]),Activity (MCF7 [8]) [%],Activity (MCF7 [9]) [%],Activity (MCF7 [10]) [%],Activity (MCF7 [11]) [%],Activity (MCF7 [12]),Activity (MCF7 [13]) [%],Activity (MCF7 [14]),Activity (MCF7 [15]) [%],Activity (MCF7 [16]) [%],Activity (MCF7 [17]),Activity (MCF7 [18]) [%],Activity (MCF7 [19]) [%],Activity (MCF7 [20]) [%],further results
N#CC(C#N)=NNc1cccc(Cl)c1 [CARBONYL CYANIDE M-CHLOROPHENYLHYDRAZONE],0,100,–,–,–,–,–,–,–,–,–,–,–,–,–,–,–,–,–,–,–
C=C1CC[C@@H]2[C@](C)(CO)[C@H](O)CC[C@@]2(C)[C@@H]1CC1CN(Cc2ccccc2)[C@@]2(C(=O)c3cccc4cccc2c34)[C@]12C(=O)OC[C@H]2O (some centres not stated),17,83,46.3,97.7,27.5,0.3,Active,96.4,56.5,95,23.9,Active,42.4,Active,0,4.6,Active,3.6,29.8,0.8,Activity (MCF7 [21]): 32.3%; Activity (MCF7 [22]): 0.4%; IC50 (MCF7 [23]): 8.9 µM; Activity (MCF7 [24]): 38.6%; Activity (MCF7 [25]): tde; Activity (MCF7 [26]): Active
C=C1CC[C@@H]2[C@](C)(CO)[C@H](O)CC[C@@]2(C)[C@@H]1CC1CN(Cc2ccccc2)[C@@]2(C(=O)Nc3c(F)cccc32)[C@]12C(=O)OC[C@H]2O (some centres not stated),50.1,50,46.6,96.2,17.4,0.6,Active,97.5,76.3,57.8,31.1,Active,22.7,Active,1.4,4.1,Active,2.5,22.2,0.4,Activity (MCF7 [21]): 33.3%; Activity (MCF7 [22]): 36.7%; IC50 (MCF7 [23]): 13.7 µM; Activity (MCF7 [24]): 48.1%; Activity (MCF7 [25]): tde; Activity (MCF7 [26]): Active
C=C1CC[C@@H]2[C@](C)(CO)[C@H](O)CC[C@@]2(C)[C@@H]1CC1CN(Cc2ccccc2)[C@@]2(C(=O)Nc3ccc(Cl)cc32)[C@]12C(=O)OC[C@H]2O (some centres not stated),37.7,62.3,42.7,99.4,20.2,0.9,Active,89.8,71.5,84.8,27.8,Active,28.5,Active,0.2,7.1,Active,10.2,29.5,0.7,Activity (MCF7 [21]): 42.9%; Activity (MCF7 [22]): 7.9%; IC50 (MCF7 [23]): 12.7 µM; Activity (MCF7 [24]): 35.8%; Activity (MCF7 [25]): tde; Activity (MCF7 [26]): Active
C=C1CC[C@@H]2[C@](C)(CO)[C@H](O)CC[C@@]2(C)[C@@H]1CC1CN(Cc2ccccc2)[C@@]2(C(=O)Nc3ccc(C)cc32)[C@]12C(=O)OC[C@H]2O (some centres not stated),21,79,42.4,99.9,19.4,0.8,Active,88.9,79.2,18.5,28.5,Active,19.7,Active,2.2,1.5,Active,11.1,29.1,0.6,Activity (MCF7 [21]): 37.9%; Activity (MCF7 [22]): 77.8%; IC50 (MCF7 [23]): 10.9 µM; Activity (MCF7 [24]): 41.7%; Activity (MCF7 [25]): tde; Activity (MCF7 [26]): Active
C=C1CC[C@@H]2[C@](C)(CO)[C@H](O)CC[C@@]2(C)[C@@H]1CC1CN(Cc2ccccc2)[C@@]2(C(=O)Nc3ccc(Br)cc32)[C@]12C(=O)OC[C@H]2O (some centres not stated),54.1,46.1,40.3,98.1,22,0.9,Active,93.1,61.4,93.9,28.5,Active,35.7,Active,0,4.4,Active,6.4,31.1,2,Activity (MCF7 [21]): 34.2%; Activity (MCF7 [22]): 1.7%; IC50 (MCF7 [23]): 12.8 µM; Activity (MCF7 [24]): 43%; Activity (MCF7 [25]): tde; Activity (MCF7 [26]): Active
